In US9422297B2, “Tricyclic compounds having cytostatic and/or cytotoxic activity and methods of use thereof” (Duquesne University of the Holy Ghost, priority 2007, dated 2016):
Read-outs that look alike come from different tables or passages of the source.

Experiments:
Thymidylate synthase [1] = biological target: Thymidylate synthase (Homo sapiens (Human), UniProt P04818); experiment: Thymidylate synthase inhibition, human; type: biochemical; settings: Human TS
Thymidylate synthase [2] = biological target: Thymidylate synthase (Escherichia coli (strain K12), UniProt P0A884); experiment: Thymidylate synthase inhibition, E. coli; type: biochemical
Sequence of Thymidylate synthase (Escherichia coli (strain K12), UniProt P0A884) (P0A884 whole entry, looked up): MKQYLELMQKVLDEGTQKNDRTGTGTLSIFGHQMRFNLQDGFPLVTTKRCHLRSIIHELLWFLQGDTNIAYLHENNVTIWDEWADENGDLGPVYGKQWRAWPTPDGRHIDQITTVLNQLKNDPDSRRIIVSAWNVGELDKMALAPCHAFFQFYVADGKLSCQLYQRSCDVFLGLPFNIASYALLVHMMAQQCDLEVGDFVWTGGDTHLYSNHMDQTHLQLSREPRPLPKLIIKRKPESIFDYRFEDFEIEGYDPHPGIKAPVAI

Flk-1 kinase = Flk-1 kinase (Homo sapiens (Human), UniProt P35968); experiment: Flk-1 kinase inhibition; type: biochemical; settings: Table 3
Sequence of Flk-1 kinase (P35968 20-1356): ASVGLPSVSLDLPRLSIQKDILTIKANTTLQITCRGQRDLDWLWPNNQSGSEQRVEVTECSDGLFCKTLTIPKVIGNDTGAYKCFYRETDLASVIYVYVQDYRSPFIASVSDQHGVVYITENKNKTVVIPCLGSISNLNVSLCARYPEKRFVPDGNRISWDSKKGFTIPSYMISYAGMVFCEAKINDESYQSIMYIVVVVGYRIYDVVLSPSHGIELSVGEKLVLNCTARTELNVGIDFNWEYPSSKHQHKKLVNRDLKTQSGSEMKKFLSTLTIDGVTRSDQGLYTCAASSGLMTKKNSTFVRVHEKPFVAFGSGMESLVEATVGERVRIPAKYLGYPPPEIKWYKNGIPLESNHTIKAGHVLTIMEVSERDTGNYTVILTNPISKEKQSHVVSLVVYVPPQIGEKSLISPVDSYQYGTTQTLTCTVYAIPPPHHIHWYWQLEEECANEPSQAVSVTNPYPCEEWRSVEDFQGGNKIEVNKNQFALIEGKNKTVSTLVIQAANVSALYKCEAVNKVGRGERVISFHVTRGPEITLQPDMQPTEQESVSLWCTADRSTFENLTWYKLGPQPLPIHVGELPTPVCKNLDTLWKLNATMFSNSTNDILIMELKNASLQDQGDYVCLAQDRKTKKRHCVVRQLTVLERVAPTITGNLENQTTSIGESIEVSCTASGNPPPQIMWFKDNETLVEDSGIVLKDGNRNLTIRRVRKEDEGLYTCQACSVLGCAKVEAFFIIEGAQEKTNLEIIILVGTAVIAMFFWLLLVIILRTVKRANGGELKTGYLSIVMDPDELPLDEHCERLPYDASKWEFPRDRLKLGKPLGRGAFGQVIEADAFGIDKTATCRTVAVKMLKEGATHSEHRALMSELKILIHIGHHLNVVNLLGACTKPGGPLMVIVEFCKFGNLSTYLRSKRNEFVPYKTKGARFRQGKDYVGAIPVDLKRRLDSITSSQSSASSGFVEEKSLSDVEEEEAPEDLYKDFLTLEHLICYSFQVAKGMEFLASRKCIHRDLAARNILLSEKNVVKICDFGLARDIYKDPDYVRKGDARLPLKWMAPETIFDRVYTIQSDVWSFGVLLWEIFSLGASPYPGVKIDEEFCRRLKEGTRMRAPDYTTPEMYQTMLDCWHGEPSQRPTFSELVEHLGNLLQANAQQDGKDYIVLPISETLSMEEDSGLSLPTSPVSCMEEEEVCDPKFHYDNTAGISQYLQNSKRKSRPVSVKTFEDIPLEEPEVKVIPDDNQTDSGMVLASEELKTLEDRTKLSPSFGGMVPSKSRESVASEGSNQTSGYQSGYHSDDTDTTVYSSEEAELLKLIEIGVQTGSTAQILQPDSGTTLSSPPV

PDGFR-β kinase = PDGFR-β kinase (Homo sapiens (Human), UniProt P09619); experiment: PDGFR-β kinase inhibition; type: biochemical
Sequence of PDGFR-β kinase (P09619 33-1106): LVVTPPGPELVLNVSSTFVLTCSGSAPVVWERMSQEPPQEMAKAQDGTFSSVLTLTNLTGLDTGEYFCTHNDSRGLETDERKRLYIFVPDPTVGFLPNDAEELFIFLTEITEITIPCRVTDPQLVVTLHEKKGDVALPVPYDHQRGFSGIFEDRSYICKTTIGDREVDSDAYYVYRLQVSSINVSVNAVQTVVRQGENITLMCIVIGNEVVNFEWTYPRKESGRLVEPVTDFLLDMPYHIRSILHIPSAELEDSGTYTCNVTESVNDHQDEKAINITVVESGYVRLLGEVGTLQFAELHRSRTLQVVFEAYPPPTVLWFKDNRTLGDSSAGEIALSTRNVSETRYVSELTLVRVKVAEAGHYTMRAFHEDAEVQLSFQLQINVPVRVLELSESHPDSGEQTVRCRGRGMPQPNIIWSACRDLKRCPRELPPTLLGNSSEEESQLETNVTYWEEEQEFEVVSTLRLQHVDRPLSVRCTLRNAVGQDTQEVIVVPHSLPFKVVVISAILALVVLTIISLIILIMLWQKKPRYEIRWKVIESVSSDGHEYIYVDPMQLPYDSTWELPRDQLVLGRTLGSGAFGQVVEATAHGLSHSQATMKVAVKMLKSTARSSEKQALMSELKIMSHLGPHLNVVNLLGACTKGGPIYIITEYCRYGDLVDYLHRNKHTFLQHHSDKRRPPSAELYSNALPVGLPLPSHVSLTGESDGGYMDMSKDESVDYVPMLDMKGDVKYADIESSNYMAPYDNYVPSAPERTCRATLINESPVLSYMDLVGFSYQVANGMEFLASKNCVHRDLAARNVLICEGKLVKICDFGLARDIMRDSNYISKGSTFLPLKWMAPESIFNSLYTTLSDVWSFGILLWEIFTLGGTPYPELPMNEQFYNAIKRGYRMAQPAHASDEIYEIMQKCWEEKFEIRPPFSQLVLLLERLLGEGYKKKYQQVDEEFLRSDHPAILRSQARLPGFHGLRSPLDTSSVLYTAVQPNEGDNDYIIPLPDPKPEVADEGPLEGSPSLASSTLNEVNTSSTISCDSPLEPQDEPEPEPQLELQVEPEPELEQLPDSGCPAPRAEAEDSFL

EGFR kinase = EGFR kinase (Homo sapiens (Human), UniProt P00533); experiment: EGFR kinase inhibition; type: biochemical
Sequence of EGFR kinase (P00533 25-1210): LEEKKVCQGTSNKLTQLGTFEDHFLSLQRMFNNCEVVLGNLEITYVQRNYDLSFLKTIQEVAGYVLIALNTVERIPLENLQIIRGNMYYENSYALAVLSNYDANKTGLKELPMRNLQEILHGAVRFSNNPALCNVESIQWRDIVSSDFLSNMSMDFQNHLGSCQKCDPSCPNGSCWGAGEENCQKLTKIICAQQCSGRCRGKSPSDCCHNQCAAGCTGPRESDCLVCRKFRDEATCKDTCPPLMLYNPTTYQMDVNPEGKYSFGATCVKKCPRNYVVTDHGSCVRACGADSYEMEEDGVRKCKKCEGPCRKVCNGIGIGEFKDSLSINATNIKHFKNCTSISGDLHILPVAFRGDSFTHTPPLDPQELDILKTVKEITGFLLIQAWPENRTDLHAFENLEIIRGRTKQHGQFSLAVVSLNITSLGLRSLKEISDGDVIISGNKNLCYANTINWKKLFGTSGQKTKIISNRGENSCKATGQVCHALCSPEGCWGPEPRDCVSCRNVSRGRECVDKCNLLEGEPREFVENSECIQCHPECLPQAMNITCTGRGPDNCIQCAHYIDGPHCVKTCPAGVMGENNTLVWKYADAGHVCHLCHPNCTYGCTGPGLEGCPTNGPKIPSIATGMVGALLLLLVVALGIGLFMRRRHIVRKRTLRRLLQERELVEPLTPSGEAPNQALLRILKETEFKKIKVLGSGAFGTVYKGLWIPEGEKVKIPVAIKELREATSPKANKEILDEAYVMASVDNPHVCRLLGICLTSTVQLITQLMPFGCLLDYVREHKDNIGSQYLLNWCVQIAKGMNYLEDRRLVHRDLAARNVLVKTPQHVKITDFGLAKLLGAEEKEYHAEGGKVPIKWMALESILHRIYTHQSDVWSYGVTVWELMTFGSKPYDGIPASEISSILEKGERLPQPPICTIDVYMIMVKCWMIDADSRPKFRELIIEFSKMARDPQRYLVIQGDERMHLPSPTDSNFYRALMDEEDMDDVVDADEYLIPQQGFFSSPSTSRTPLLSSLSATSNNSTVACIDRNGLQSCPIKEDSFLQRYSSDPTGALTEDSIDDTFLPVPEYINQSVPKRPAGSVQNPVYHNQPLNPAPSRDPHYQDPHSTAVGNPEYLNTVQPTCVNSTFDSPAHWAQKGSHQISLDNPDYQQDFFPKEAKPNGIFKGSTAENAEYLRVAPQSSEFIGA

A431 cytotoxicity assay = type: cell-based; settings: human, A431 cells
VEGFR-2 kinase = VEGFR-2 kinase (Homo sapiens (Human), UniProt P35968); experiment: VEGFR-2 kinase inhibition; type: biochemical; settings: Table 1
Sequence of VEGFR-2 kinase (P35968 20-1356): as the sequence (P35968 20-1356) above

[3] = system: COLO-205 metastatic human colon cancer cells; experiment: COLO-205 tumors implanted in athymic mice; type: in vivo
Thymidylate synthase [4] = biological target: Thymidylate synthase (Toxoplasma gondii, UniProt Q07422); experiment: Thymidylate synthase inhibition, Toxo; type: biochemical
CAM angiogenesis = experiment: CAM assay, inhibition of angiogenesis; type: in vivo; settings: Table 3
[5] = Table 3, read-out: PDGFR-β kinase
[6] = athymic mice, 25 mg/kg 3× weekly

Sequence of Thymidylate synthase (Homo sapiens (Human), UniProt P04818) (P04818 whole entry): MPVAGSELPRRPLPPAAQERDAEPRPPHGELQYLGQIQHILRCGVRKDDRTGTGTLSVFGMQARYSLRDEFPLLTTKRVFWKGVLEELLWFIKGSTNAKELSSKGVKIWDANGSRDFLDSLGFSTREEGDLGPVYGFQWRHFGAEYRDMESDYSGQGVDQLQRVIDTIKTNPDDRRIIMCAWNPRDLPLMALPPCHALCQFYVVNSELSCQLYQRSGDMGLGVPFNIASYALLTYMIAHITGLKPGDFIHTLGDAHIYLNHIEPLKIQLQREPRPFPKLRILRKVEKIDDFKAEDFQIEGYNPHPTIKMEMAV

IC50 (Flk-1 kinase) | IC50 (PDGFR-β kinase; [5]) | IC50 (EGFR kinase; Table 3, read-out: EGFR kinase) | Compound | IC50 (A431 cytotoxicity assay; Table 3) | other results
 |  |  | Nc1nc2[nH]cc(CCc3ccc(C(=O)N[C@@H](CCC(=O)O)C(=O)O)cc3)c2c(=O)[nH]1 [Pemetrexed, reference compound] |  | IC50 (Thymidylate synthase [1]): 29 µM; IC50 (Thymidylate synthase [2]; E. coli TS, read-out: Thymidylate synthase inhibition E. coli): 15 µM
43 µM | 75.5 µM | > 200 µM | COc1cccc(Nc2nc(N)nc3c2-c2ccccc2C3)c1 [AAG145-159] | 13.9 µM | 
 |  |  | Nc1nc(N)c2c(n1)[nH]c1cccc(Sc3ccccc3)c12 [AAG-148-43, 5-(phenylthio)-9H-pyrimido[4,5-b]indole-2,4-diamine] |  | IC50 (VEGFR-2 kinase): 22.6 µM; IC50 (PDGFR-β kinase; Table 1, read-out: PDGFR-β kinase inhibition): 2.8 µM; metastasis to the liver of COLO-205 cells [3, 6]: significantly reduced metastasis to the liver; vascularity of COLO-205 primary tumors [3, 6]: reduced vascularity much better than DMBI; primary tumor growth of COLO-205 ([3]; athymic mice, 25 mg/kg three times a week): significantly reduced the growth; apparent toxicity (loss in weight of the animals) ([3]; mice, 25 mg/kg three times weekly): no apparent toxicity; IC50 (EGFR kinase; Table 1, read-out: EGFR kinase inhibition): 15.1 µM; IC50 (Thymidylate synthase [1]): 0.54 µM; IC50 (Thymidylate synthase [2]): > 27 µM; IC50 (A431 cytotoxicity assay; Table 1): 49.2 µM
 |  |  | Cc1ccc(Sc2cccc3[nH]c4nc(N)nc(N)c4c23)cc1 [AAG-148-311, 5-[(4-methylphenyl)thio]-9H-pyrimido[4,5-b]indole-2,4-diamine] |  | IC50 (Thymidylate synthase [4]): 0.18 µM; IC50 (Thymidylate synthase [1]): 0.39 µM
> 200 µM | 21.7 µM | > 200 µM | CC(C)c1ccccc1Nc1nc(N)nc2c1-c1ccccc1C2 [AAG145-124] | 126 µM | 
171 µM | 43.1 µM | > 200 µM | Nc1nc2c(c(Nc3ccccc3)n1)-c1ccccc1C2 [AAG145-158] | 4.9 µM | 
55.7 µM | 7.1 µM | > 200 µM | Nc1nc2c(c(Nc3cccc(F)c3)n1)-c1ccccc1C2 [AAG145-161] | 9.8 µM | 
134 µM | > 500 µM | 19.6 µM | Nc1nc2c(c(Nc3cccc(Cl)c3)n1)-c1ccccc1C2 [AAG145-157] | 235 µM | 
 |  |  | Cc1cc(C)c(/C=C2\C(=O)Nc3ccccc32)[nH]1 [SU5416, reference compound] | […] | IC50 (CAM angiogenesis): 0.032 ± 0.005 µM

Compound | IC50 (Flk-1 kinase) | IC50 (PDGFR-β kinase; [5]) | IC50 (EGFR kinase; Table 3, read-out: EGFR kinase) | IC50 (A431 cytotoxicity assay; Table 3) | other results
Nc1nc2c(c(Nc3ccc(Cl)cc3F)n1)-c1ccccc1C2 [AAG145-135] | 197 µM |  | 11.7 µM | 9.7 µM | 
CC(C)c1ccc(Nc2nc(N)nc3c2-c2ccccc2C3)cc1 [AAG145-126] | 11 µM | 7.8 µM | 42.6 µM | 126 µM | 
Nc1nc2c(c(Nc3cccc(Br)c3)n1)-c1ccccc1C2 [AAG145-131] | > 200 µM | 126 µM | 24.1 µM | > 5000 µM | 
Nc1nc2c(c(Nc3ccc(F)c(Cl)c3)n1)-c1ccccc1C2 [AAG145-164] | 72.9 µM | 6.4 µM | > 200 µM | 158 µM | 
